In patent publication US20170157143A1, “NORPREGNANE DERIVATIVES FOR THE RISK REDUCTION OF BREAST CANCER” (Helix Twelve Pharmaceuticals Corporation, Inc., priority 2015, published 2017):

Columns and labels:
[1] = tested on: breast carcinoma; assay: HLX-801 prophylactic therapy against breast cancer in at-risk subject groups compared to tamoxifen; format: in vivo, human
Procedure: Table 1: Exemplary effect of HLX-801 prophylactic therapy against breast cancer cells in at-risk subject groups compared to Tamoxifen (“TAM”) 1 mg.

[2] = tested on: breast cancer; conditions: DCIS patients; cited from earlier work
[3] = Side effect profile of HLX-801; conditions: in vivo
From the text: The compounds are associated with the absence of the side effects that currently limit the adoption of the currently available tamoxifen and aromatase inhibition approaches by at risk individuals.

For CC/C(=C(\c1ccccc1)c1ccc(OCCN(C)C)cc1)c1ccccc1 [TAM, Tamoxifen, reference compound], which “No. of subjects developing breast carcinoma” value ([1]; TAM 1 mg, patients group 7/17) is on record?
The value was 12.

What about the “No. of subjects developing breast carcinoma” value ([1]; TAM 1 mg, patients group 7/21) of the same compound?
The value was 11.

And the “No. of subjects developing breast carcinoma” value ([1]; TAM 1 mg, patients group 7/24 (# of cohorts/# of subjects per cohort))?
Its value is 12.

And the “reduction of the risk to progression to breast cancer” value [2]?
The value was 30%.

What does the source list for CCN(CC)Cc1ccc(OCC[C@H]2CCC3C4[C@H](C)Cc5cc(O)ccc5[C@H]4CC[C@@]32C)c(OC)c1 (stereo partly drawn) [HLX-801, (7α)-21-[4-[(diethylamino)methyl]-2-methoxyphenoxy]-7-methyl-19-norpregna-1,3,5(10)-trien-3-ol 2-hydroxy-1,2,3-propanetricarboxylate]?
No. of subjects developing breast carcinoma ([1]; HLX-801 1 mg, patients group 7/17): 3; No. of subjects developing breast carcinoma ([1]; HLX-801 1 mg, patients group 7/21): 2; No. of subjects developing breast carcinoma ([1]; HLX-801 1 mg, patients group 7/24): 3; No. of subjects developing breast carcinoma ([1]; HLX-801 5 mg, patients group 7/17): 1; No. of subjects developing breast carcinoma ([1]; HLX-801 5 mg, patients group 7/21): 2; No. of subjects developing breast carcinoma ([1]; HLX-801 5 mg, patients group 7/24): 2; No. of subjects developing breast carcinoma ([1]; HLX-801 10 mg, patients group 7/17): 1; No. of subjects developing breast carcinoma ([1]; HLX-801 10 mg, patients group 7/21): 1; No. of subjects developing breast carcinoma ([1]; HLX-801 10 mg, patients group 7/24): 1; No. of subjects developing breast carcinoma ([1]; HLX-801 20 mg, patients group 7/17): 1; No. of subjects developing breast carcinoma ([1]; HLX-801 20 mg, patients group 7/21): 1; No. of subjects developing breast carcinoma ([1]; HLX-801 20 mg, patients group 7/24): 1; No. of subjects developing breast carcinoma ([1]; HLX-801 40 mg, patients group 7/17): 1; No. of subjects developing breast carcinoma ([1]; HLX-801 40 mg, patients group 7/21): 1; No. of subjects developing breast carcinoma ([1]; HLX-801 40 mg, patients group 7/24): 1; No. of subjects developing breast carcinoma ([1]; HLX-801 80 mg, patients group 7/17): 1; No. of subjects developing breast carcinoma ([1]; HLX-801 80 mg, patients group 7/21): 1; No. of subjects developing breast carcinoma ([1]; HLX-801 80 mg, patients group 7/24): 1; bone loss (long-term risk of fractures) [3]: no evidence of bone loss; muscle aches [3]: no reports of muscle aches; uterine thickening (indicator of risk for treatment-induced uterine cancer) [3]: no evidence of uterine thickening; venous thrombembolism (indicator of risk for stroke) [3]: no evidence of venous thrombembolism
